Marks after values point to notes of the source that are not given here.
Key:
[1] = system: RARα expression in epidermal keratinocytes; experiment: Seven-day patch test, RARα immunohistochemistry; type: in vivo, human; settings: patch test under occlusion
Text: (§1) The standard four-day patch test assay was extended to a seven-day period to examine the effect of the Topical 1 formulation under occlusion or delivered by ultrasound on the induction of fibrillin expression as a mechanism by which clinical signs of photoageing may be improved.
(§2) Ageing can also be monitored by examination of other molecules within the skin. Previous work has identified alterations in the expression of the enzyme matrix metalloproteinase 1 (MMP-1; essential for extracellular matrix remodelling)^3 and in the nuclear retinoid receptor retinoic acid receptor α (RARα; necessary for modulating the effects of vitamin A and its derivatives)^4. Two molecular chaperones were assessed to identify pathways for eliminating abnormal proteins; these were heat shock protein-72 (HSP72)^5 and the extracellular chaperone, clusterin^6.
(§3) Six healthy but photoaged female volunteers were recruited (age range 52-79 years). […]
(§4) A number of extracellular matrix (ECM) molecules known to be reduced in photoaged skin were assayed by immunohistochemistry to detail the potential effects of the Topical 1 formulation and its method of delivery. […] Also assessed were the number of epidermal keratinocytes expressing MMP-1 and RARα. […]
(§5) For cell-associated staining, the numbers of positive epidermal keratinocytes were assessed per high powered field, and the average score calculated for each site/test area. […]

[2] = system: MMP-1 expression in epidermal keratinocytes; experiment: Seven-day patch test, MMP-1 immunohistochemistry; type: in vivo, human; settings: patch test under occlusion
Text: as §1, §2, §3, §4, §5

[3] = system: fibrillin-rich microfibrils proximal to the dermal-epidermal junction (DEJ); experiment: Seven-day patch test, fibrillin-1 immunohistochemistry; type: in vivo, human; settings: patch test under occlusion
Text: as §1
Fibrillin is a major constituent of the elastin network in the papillary dermis and plays an important role in securing the epidermis to the underlying dermis. Topical application of all-trans retinoic acid (t-RA) as a positive control ameliorates the clinical signs of photoageing.
as §3, §4
Sections were randomised, blinded and examined on a Nikon OPTIPHOT microscope (Tokyo, Japan). For assessment of ECM components, the degree of immunostaining was assessed on a 5 point semi-quantitative scale where 0=no staining and 4=maximal staining. […] The degree of immunostaining was scored for three high power fields per section, and the average score calculated for each site/test area. […]

[4] = system: HSP72 expression in the epidermis; experiment: Seven-day patch test, HSP72 immunohistochemistry; type: in vivo, human; settings: patch test under occlusion
Text: as §1, §2, §3, §4, §5

[5] = Erythema and skin tolerability observations during the trial; type: in vivo, human; settings: patch test protocol
Method: Six healthy but photoaged female volunteers were recruited (age range 52-79 years). Test substances were applied separately under standard 6 mm diameter Finn chambers to the extensor aspect of the forearm: these were Topical 1 formulation (20 μl/chamber), vehicle base (20 μl/chamber) and 0.025% all-trans RA (Retin-A® cream, Janssen-Cilag Ltd., 20 μl/chamber). In addition, a baseline untreated biopsy was taken as a reference point. Formulations were applied to clean skin on days 1 and 4 of the assay. All-trans RA was applied to an untreated site on day 4. On day 8, Finn chambers were removed and 3 mm punch biopsies were obtained under 1% lignocaine anaesthesia from each of the test site. Biopsies were embedded in OCT compound (Tissue-Tek®, Miles, Ind., USA) and snap frozen in liquid nitrogen. Biopsy sites were sutured with 1×4/o ethilon and subjects instructed to return between 7-10 days for suture removal.
Ten healthy but photoaged volunteers were recruited (men: 2; female: 8; age range 40-79 years). Topical 1 formulation was applied to extensor forearms alone and with the aid of an ultrasound device (Duo Son™ unit, Orthosonics, Devon UK). Low frequency (45 kHz, 100 mW/cm^2, continuous) and high frequency (1 MHz, 1 W/cm^2 pulsed average, pulsed 20% cycle) were applied simultaneously for a period of ten minutes, during which time the ultrasound delivery head was moved over the skin. […]

[6] = system: HSP70 mRNA; settings: rats, aspirin 100 mg/kg intraperitoneally 60 min before 37° C. for 30 min; cited from earlier work
[7] = positive epidermal keratinocytes per high powered field

| Structure (SMILES) | effect on RARα expression in epidermal keratinocytes ([1]; result in words) | RARα staining Mean [1, 7] | effect on MMP-1 expression in epidermal keratinocytes ([2]; result in words) | MMP-1 staining Mean ([2]; positive epidermal keratinocytes per high powered field, p > 0.05) | Fibrillin-1 staining Mean ([3]; photoaged forearm, biopsy day 8, 5 point scale 0=no staining, 4=maximal staining, p > 0.05) | volunteers with fibrillin-1 deposition proximal to the DEJ ([3]; six volunteers) | effect on expression of epidermal HSP72 ([4]; result in words) | HSP72 staining Mean [4, 7] | Erythema at the site of application [5] | levels of HSP70 mRNA relative to heat treatment alone [6] [fold] |
| --- | --- | --- | --- | --- | --- | --- | --- | --- | --- | --- |
| CC1=C(/C=C/C(C)=C/C=C/C(C)=C/C(=O)O)C(C)(C)CCC1 [All-trans RA, all-trans retinoic acid] | significantly reduced RARα expression in epidermal keratinocytes | 6.0463 | reduced MMP-1 expression in epidermal keratinocytes, although this did not reach significance | 5.3333 | 1.8241 | 3/6 | significantly increased the expression of epidermal HSP72 | 77.03** | marked erythema |  |
| CC(=O)Oc1ccccc1C(=O)O [aspirin, acetylsalicyclic acid] |  |  |  |  |  |  |  |  |  | 3 to 4 |

Source: US10406383B2, “Apparatus for treatment of dermatological conditions” (CAREWEAR CORP., priority 2004, dated 2019)
